# Where two headings read alike, the source gives them in different places.
# How the values were obtained:
# Green Peach Aphid (GPA) = test: Bioassays on Green Peach Aphid, cabbage seedling foliar spray; assay type: in vivo; conditions: Myzus persicae, 72 h, read-out: GPA % Control (or Mortality) rating
# Protocol: Cabbage seedlings grown in 3-inch pots, with 2-3 small (3-5 cm) true leaves, were used as test substrate. The seedlings were infested with 20-50 GPA (wingless adult and nymph stages) one day prior to chemical application. Four pots with individual seedlings were used for each treatment. Test compounds (2 mg) were dissolved in 2 mL of acetone/MeOH (1:1) solvent, forming stock solutions of 1000 ppm test compound. The stock solutions were diluted 5× with 0.025% Tween 20 in water to obtain the solution at 200 ppm test compound. A hand-held aspirator-type sprayer was used for spraying a solution to both sides of […] leaves until runoff. Reference plants (solvent check) were sprayed with the diluent only containing 20% by volume of acetone/MeOH (1:1) solvent. Treated plants were held in a holding room for three days at approximately 25° C. and ambient relative humidity (RH) prior to grading. Evaluation was conducted by counting the number of live aphids per plant under a microscope. Percent Control was measured by using Abbott's correction formula (W. S. Abbott, “A Method of Computing the Effectiveness of an Insecticide” J. Econ. Entomol. 18 (1925), pp. 265-267) as follows. Corrected % Control=100*(X−Y)/X where X=No. of live aphids on solvent check plants and Y=No. of live aphids on treated plants. The results are indicated in the table entitled “Table ABC: Assay Results (F)” and “Table ABCD: Assay Results (C)” (See Table Section).
# Beet Armyworm (BAW) = test: Bioassays on BAW, 128-well diet tray assay; assay type: in vivo; conditions: Spodoptera exigua; for mortality at 50 µg/cm2: 168 h, read-out: BAW % Control (or Mortality) rating
# In short: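 Test compound was applied at 50 μg/cm^2 in 90:10 acetone-water to the artificial diet surface and dried, with eight wells per compound. One to five second-instar beet armyworm larvae were placed per well and held at 25 °C, 14:10 light-dark, for five to seven days. Percent mortality was averaged over the wells.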
# Cabbage Looper (CL) = test: Bioassays on CL, 128-well diet tray assay; assay type: in vivo; conditions: Trichoplusia ni; for mortality at 50 µg/cm2: 168 h, read-out: CL % Control (or Mortality) rating
# In short: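 Second-instar larvae, one to five per well, were placed on artificial diet treated with 50 μg/cm^2 compound (in 90:10 acetone-water) and dried, with eight wells per compound. Trays were held at 25° C, 14:10 light-dark, for five to seven days. Percent mortality was scored per well and averaged.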
# [1] = system: Yellow Fever Mosquito (YFM); assay type: in vivo, Aedes aegypti; conditions: 15 μL of diluted 4000 ppm master solution per well, about 1 day-old larvae, 3 days
# Protocol: Master plates containing 400 μg of a molecule dissolved in 100 μL of dimethyl sulfoxide (DMSO) (equivalent to a 4000 ppm solution) are used. A master plate of assembled molecules contains 15 μL per well. To this plate, 135 μL of a 90:10 water:acetone mixture is added to each well. A robot (Biomek® NXP Laboratory Automation Workstation) is programmed to dispense 15 μL aspirations from the master plate into an empty 96-well shallow plate (“daughter” plate). There are 6 reps (“daughter” plates) created per master. The created daughter plates are then immediately infested with YFM larvae. The day before plates are to be treated, mosquito eggs are placed in Millipore water containing liver powder to begin hatching (4 g. into 400 mL). After the daughter plates are created using the robot, they are infested with 220 μL of the liver powder/larval mosquito mixture (about 1 day-old larvae). After plates are infested with mosquito larvae, a non-evaporative lid is used to cover the plate to reduce drying. Plates are held at room temperature for 3 days prior to grading. After 3 days, each well is observed and scored based on mortality. The results are indicated in the table entitled “Table ABC: Assay Results (F)” and “Table ABCD: Assay Results (C)” (See Table Section). Pesticidally Acceptable Acid Addition Salts, Salt Derivatives, Solvates, Ester Derivatives, Polymorphs, Isotopes and Radionuclides
# [2] = 200 ppm foliar spray on cabbage seedlings, three days, Abbott corrected % control
# [3] = 50 μg/cm^2 on artificial diet, second instar larvae, five to seven days, 25° C.
SMILES,mortality at 50 µg/cm2 (Beet Armyworm (BAW); [3]),mortality at 50 µg/cm2 (Cabbage Looper (CL); [3]),YFM % Control (or Mortality) rating [1],also measured
"C[C@H](NC(=O)CC[S+](C)[O-])NC(=O)c1ccc(/C=C/C(c2cc(Cl)c(Cl)c(Cl)c2)C(F)(F)F)cc1C(F)(F)F (stereo partly drawn) [Compound P49, N-((1R)-1-(3-(methylsulfinyl)propanamido)ethyl)-4-((E)-4,4,4-trifluoro-3-(3,4,5-trichlorophenyl)but-1-en-1-yl)-2-(trifluoromethyl)benzamide]",50 to 100%,50 to 100%,–,mortality at 200 ppm (Green Peach Aphid (GPA); [2]): 0 to 80%
"C[C@H](NC(=O)C[S+](C)[O-])NC(=O)c1ccc(/C=C/C(c2cc(Cl)c(Cl)c(Cl)c2)C(F)(F)F)cc1C(F)(F)F (stereo partly drawn) [Compound P36, N-((1S)-1-(2-(Methylsulfinyl)acetamido)ethyl)-4-((E)-4,4,4-trifluoro-3-(3,4,5-trichlorophenyl)but-1-en-1-yl)-2-(trifluoromethyl)benzamide]",50 to 100%,50 to 100%,–,mortality at 200 ppm (Green Peach Aphid (GPA); [2]): 0%
"C[C@H](NC(=O)CC(F)(F)F)NC(=O)c1ccc(/C=C/C(c2cc(Br)cc(Br)c2)C(F)(F)F)cc1C(F)(F)F (stereo partly drawn) [Compound P3, 4-((E)-3-(3,5-Dibromophenyl)-4,4,4-trifluorobut-1-en-1-yl)-2-(trifluoromethyl)-N—((R)-1-(3,3,3-trifluoropropanamido)ethyl)benzamide]",50 to 100%,50 to 100%,B (More than 0-Less than 80),–
"CC(C)=CC(=O)N[C@@H](C)NC(=O)c1ccc(/C=C/C(c2cc(Cl)c(Cl)c(Cl)c2)C(F)(F)F)cc1C(F)(F)F (stereo partly drawn) [Compound F8, N—((R)-1-(3-Methylbut-2-enamido)ethyl)-4-((E)-4,4,4-trifluoro-3-(3,4,5-trichlorophenyl)but-1-en-1-yl)-2-(trifluoromethyl)benzamide]",50 to 100%,50 to 100%,A (80-100),–
"CN(CCNC(=O)c1ccc(/C=C/C(c2cc(Cl)c(Cl)c(Cl)c2)C(F)(F)F)cc1C(F)(F)F)C(=O)CC(F)(F)F (stereo not shown) [Compound F20, (E)-4-(4,4,4-trifluoro-3-(3,4,5-trichlorophenyl)but-1-en-1-yl)-N-(2-(3,3,3-trifluoro-N-methylpropanamido)ethyl)-2-(trifluoromethyl)benzamide]",50 to 100%,50 to 100%,A (80-100),–
"CN(CCNC(=O)c1ccc(/C=C/C(c2cc(Cl)c(Cl)c(Cl)c2)C(F)(F)F)cc1C(F)(F)F)C(=O)OC(C)(C)C (stereo not shown) [Compound C113, (E)-tert-butyl methyl(2-(4-(4,4,4-trifluoro-3-(3,4,5-trichlorophenyl)but-1-en-1-yl)-2-(trifluoromethyl)benzamido)ethyl)carbamate]",–,–,A (80-100),mortality at 200 ppm (Green Peach Aphid (GPA); foliar): 0%; mortality at 50 µg/cm2 (Beet Armyworm (BAW)): 50 to 100%; mortality at 50 µg/cm2 (Cabbage Looper (CL)): 50 to 100%
"CN(CCNC(=O)c1ccc(/C=C/C(c2cc(Cl)c(Cl)c(Cl)c2)C(F)(F)F)cc1C(F)(F)F)C(=O)C(F)(F)F (stereo not shown) [Compound F21, (E)-4-(4,4,4-trifluoro-3-(3,4,5-trichlorophenyl)but-1-en-1-yl)-N-(2-(2,2,2-trifluoro-N-methylacetamido)ethyl)-2-(trifluoromethyl)benzamide]",50 to 100%,50 to 100%,B (More than 0-Less than 80),–
"C[C@H](NC(=O)CC(F)(F)F)NC(=O)c1ccc(/C=C/C(c2cc(Cl)c(Br)c(Cl)c2)C(F)(F)F)cc1C(F)(F)F (stereo partly drawn) [Compound P4, 4-((E)-3-(4-Bromo-3,5-dichlorophenyl)-4,4,4-trifluorobut-1-en-1-yl)-2-(trifluoromethyl)-N—((R)-1-(3,3,3-trifluoropropanamido)ethyl)benzamide]",50 to 100%,50 to 100%,A (80-100),–
"CN(NC(=O)c1ccc(/C=C/C(c2cc(Cl)c(Cl)c(Cl)c2)C(F)(F)F)cc1C(F)(F)F)C(=O)OC(C)(C)C (stereo not shown) [Compound C116, (E)-tert-butyl 1-methyl-2-(4-(4,4,4-trifluoro-3-(3,4,5-trichlorophenyl)but-1-en-1-yl)-2-(trifluoromethyl)benzoyl)hydrazinecarboxylate]",–,–,A (80-100),mortality at 50 µg/cm2 (Beet Armyworm (BAW)): 50 to 100%; mortality at 50 µg/cm2 (Cabbage Looper (CL)): 50 to 100%
"Cc1cc(/C=C/C(c2cc(Br)c(Cl)c(Br)c2)C(F)(F)F)ccc1C(=O)N[C@H](C)NC(=O)CC(F)(F)F (stereo partly drawn) [Compound P6, 4-((E)-3-(3,5-Dibromo-4-chlorophenyl)-4,4,4-trifluorobut-1-en-1-yl)-2-methyl-N—((R)-1-(3,3,3-trifluoropropanamido)ethyl)benzamide]",50 to 100%,50 to 100%,A (80-100),–
"C[C@H](NC(=O)CCCC(F)(F)F)NC(=O)c1ccc(/C=C/C(c2cc(Cl)c(Cl)c(Cl)c2)C(F)(F)F)cc1C(F)(F)F (stereo partly drawn) [Compound F10, 4-((E)-4,4,4-Trifluoro-3-(3,4,5-trichlorophenyl)but-1-en-1-yl)-2-(trifluoromethyl)-N—((R)-1-(5,5,5-trifluoropentanamido)ethyl)benzamide]",50 to 100%,50 to 100%,A (80-100),–
C[C@H](NC(=O)CC(F)(F)F)NC(=O)c1ccc(/C=C/C(c2cc(Cl)c(Cl)c(Cl)c2)C(F)(F)F)cc1Br (stereo partly shown) [Compound P24],50 to 100%,50 to 100%,D (No activity noticed in this bioassay),"mortality at 0.05 µg/cm2 (Beet Armyworm (BAW); 0.05 μg/cm^2, read-out: BAW Percent control (or mortality)): 0%; mortality at 0.5 µg/cm2 (Beet Armyworm (BAW); 0.5 μg/cm^2, read-out: BAW Percent control (or mortality)): 7%; mortality at 5 µg/cm2 (Beet Armyworm (BAW); 5 μg/cm^2, read-out: BAW Percent control (or mortality)): 87%; mortality at 0.05 µg/cm2 (Cabbage Looper (CL); 0.05 μg/cm^2, read-out: CL Percent control (or mortality)): 6%; mortality at 0.5 µg/cm2 (Cabbage Looper (CL); 0.5 μg/cm^2, read-out: CL Percent control (or mortality)): 19%; mortality at 5 µg/cm2 (Cabbage Looper (CL); 5 μg/cm^2, read-out: CL Percent control (or mortality)): 100%"
"CCCCCC(=O)N[C@@H](C)NC(=O)c1ccc(/C=C/C(c2cc(Cl)c(Cl)c(Cl)c2)C(F)(F)F)cc1C(F)(F)F (stereo partly drawn) [Compound F3, N—((R)-1-hexanamidoethyl)-4-((E)-4,4,4-trifluoro-3-(3,4,5-trichlorophenyl)but-1-en-1-yl)-2-(trifluoromethyl)benzamide]",50 to 100%,50 to 100%,A (80-100),–
"CC(C)CC(=O)N[C@@H](C)NC(=O)c1ccc(/C=C/C(c2cc(Cl)c(Cl)c(Cl)c2)C(F)(F)F)cc1C(F)(F)F (stereo partly drawn) [Compound F6, N—((R)-1-(3-Methylbutanamido)ethyl)-4-((E)-4,4,4-trifluoro-3-(3,4,5-trichlorophenyl)but-1-en-1-yl)-2-(trifluoromethyl)benzamide]",50 to 100%,50 to 100%,A (80-100),–
"C[C@H](NC(=O)CCC#N)NC(=O)c1ccc(/C=C/C(c2cc(Cl)c(Cl)c(Cl)c2)C(F)(F)F)cc1C(F)(F)F (stereo partly drawn) [Compound F9, N—((R)-1-(3-cyanopropanamido)ethyl)-4-((E)-4,4,4-trifluoro-3-(3,4,5-trichlorophenyl)but-1-en-1-yl)-2-(trifluoromethyl)benzamide]",50 to 100%,50 to 100%,A (80-100),–

# — patent US9676704B2, “Pesticidal compositions and processes related thereto” (Dow AgroSciences LLC, priority 2014, dated 2017)
